Laboratory results taken from patent publication US20090312274A1, “Nyasol and Analogs Thereof for the Treatment of Estrogen Receptor Beta-Mediated Diseases” (Bionovo, Inc., priority 2008, published 2009).
Entries after “also recorded” stand apart in the source; their conditions may differ.

Tests used:
TNF-RE tkLuc = assay: Activation of the TNF-RE tkLuc reporter (TNF-α, antiestrogens); assay type: cell-based; settings: for activation of TNF-RE tkLuc by antiestrogens: in contrast to E2
ERα = molecular target: T1, ERα (Homo sapiens, UniProt P03372); assay: Concentration binding curve for Nyasol, ERα (FIG. 6)
T1 sequence (P03372 1-595): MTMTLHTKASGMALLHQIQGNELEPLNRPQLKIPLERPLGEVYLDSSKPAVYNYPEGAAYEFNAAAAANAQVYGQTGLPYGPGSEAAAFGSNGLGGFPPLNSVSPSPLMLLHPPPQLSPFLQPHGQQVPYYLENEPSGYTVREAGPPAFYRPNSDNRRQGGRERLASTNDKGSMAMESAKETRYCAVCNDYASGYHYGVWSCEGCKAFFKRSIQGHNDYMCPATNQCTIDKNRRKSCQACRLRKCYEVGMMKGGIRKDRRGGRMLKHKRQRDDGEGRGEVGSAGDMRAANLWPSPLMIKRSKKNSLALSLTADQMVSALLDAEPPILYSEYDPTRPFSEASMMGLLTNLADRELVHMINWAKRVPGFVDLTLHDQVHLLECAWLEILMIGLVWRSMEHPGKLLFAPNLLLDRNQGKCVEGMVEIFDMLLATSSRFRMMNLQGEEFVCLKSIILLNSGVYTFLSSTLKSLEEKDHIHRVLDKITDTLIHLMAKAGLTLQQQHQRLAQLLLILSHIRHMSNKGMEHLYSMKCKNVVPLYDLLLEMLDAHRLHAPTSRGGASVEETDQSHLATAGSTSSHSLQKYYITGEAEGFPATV

TNFα-RE = assay: Repression of TNFα-RE linked expression of Luc by nyasol (FIG. 4); settings: in vitro
[1] = system: MCF-7 breast cancer cells; assay: MCF-7 kidney capsule xenografts in nude mice; set-up: dose or concentration left out as unconfirmed; settings: 28 days
Experimental: MCF-7 xenografts were introduced into nude mouse kidneys. Mice were randomized to three treatment groups. […] Each treatment group was treated for 28 days, after which mice were euthanized and the kidneys containing the xenografts were excised, photographed and weighed.

ERβ [2] = molecular target: T2, ERβ (Homo sapiens, UniProt Q92731); assay: Concentration binding curve for Nyasol, ERβ (FIG. 6)
T2 sequence (Q92731 whole entry): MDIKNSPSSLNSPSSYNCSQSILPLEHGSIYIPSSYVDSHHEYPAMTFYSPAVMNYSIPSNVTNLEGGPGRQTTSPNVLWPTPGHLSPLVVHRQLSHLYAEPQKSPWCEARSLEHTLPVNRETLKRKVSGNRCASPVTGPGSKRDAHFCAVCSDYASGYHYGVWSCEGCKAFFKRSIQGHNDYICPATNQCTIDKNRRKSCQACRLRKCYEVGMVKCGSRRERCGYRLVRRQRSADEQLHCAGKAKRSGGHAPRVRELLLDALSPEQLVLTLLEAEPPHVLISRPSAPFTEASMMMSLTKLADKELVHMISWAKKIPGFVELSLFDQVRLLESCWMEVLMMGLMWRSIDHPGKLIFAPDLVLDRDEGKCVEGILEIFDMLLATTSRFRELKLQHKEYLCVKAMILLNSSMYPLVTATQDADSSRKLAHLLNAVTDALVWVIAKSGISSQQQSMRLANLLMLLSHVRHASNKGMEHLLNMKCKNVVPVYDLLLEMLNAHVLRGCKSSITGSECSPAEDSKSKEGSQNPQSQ

[3] = molecular target: T3, estrogen receptor beta (ERβ) (Homo sapiens, UniProt Q92731); assay: ERE-tkLuc luciferase expression with nyasol in cells coexpressing ERβ (FIG. 3, FIG. 5); assay type: cell-based
T3 construct: expressed in transfected cells
T3 sequence (Q92731 whole entry): as above
Source text: FIG. 3 is a graph comparing luciferase expression in cells transformed with DNA encoding estrogen response element alpha linked to the minimal thymidine kinase (tk) promoter and a sequence encoding luciferase (Luc) in response to varying concentrations of nyasol in the presence of either estrogen receptor alpha (ERα) or estrogen receptor beta (ERβ).

[4] = system: primary invasive breast cancer; settings: women at high risk for breast cancer; cited from earlier work
[5] = system: estrogen receptor-positive breast cancer; settings: cited from earlier work
breast cancer = settings: among the 5129 women in the raloxifene treatment group; median follow-up 40 months; cited from earlier work
ERβ [6] = molecular target: T2, ERβ; settings: in the presence of ERβ
[7] = five years of tamoxifen therapy

For `C[C@]12CC[C@@H]3c4ccc(O)cc4C[C@@H](CCCCCCCCC[S+]([O-])CCCC(F)(F)C(F)(F)F)[C@H]3[C@@H]1CC[C@@H]2O` (some centres unmarked) [ICI 182780], the “activation of TNF-RE tkLuc by antiestrogens” value (from here on “activation … by antiestrogens”) (TNF-RE tkLuc) was 2 fold.

For `C=CC(/C=C\c1ccc(O)cc1)c1ccc(O)cc1` (centres unmarked) [Nyasol, nyasol], the “binding of ERα with nyasol” value (ERα) was “bind”, the “repression of TNFα-RE linked expression of Luc” value (TNFα-RE) was “selectively represses” and the “growth of MCF-7 kidney capsule xenografts compared to control” value [1] was “inhibits the growth”. For the same compound, the “binding of ERβ with nyasol” value (ERβ [2]) was “bind”, the “ERβ-selective activation of the ERE (luciferase expression, ERβ versus ERα)” value ([3]; FIG. 3, varying concentrations of nyasol, ERE-tkLuc) was “selectively activates the ERE; also recorded: selective estrogen receptor beta agonist” and the “expression of luciferase in ERE-tkLuc-transformed cells coexpressing ERβ” value ([3]; FIG. 5, nyasol, control EtOH) was “activated the ERE”.

For `CC/C(=C(\c1ccccc1)c1ccc(OCCN(C)C)cc1)c1ccccc1` [tamoxifen], the “reduction of the risk of primary invasive breast cancer” value [4] is listed as 49%, the “reduction of mortality from breast cancer” value [5, 7] is listed as 22% and the “reduction of the risk of recurrences” value [5, 7] is listed as 42%. The “ER positive breast tumors that respond” value ([5]; fraction of tumors) was “⅔” and the “activation … by antiestrogens” value (TNF-RE tkLuc) was 2 fold.

In the case of `O=C(c1ccc(OCCN2CCCCC2)cc1)c1c(-c2ccc(O)cc2)sc2cc(O)ccc12` [raloxifene], the “cases of breast cancer” value (breast cancer) is listed as 13 cases, the “activation … by antiestrogens” value (TNF-RE tkLuc) is listed as 2 fold and the “effect of addition to nyasol on activation of the ERE” value ([3]; FIG. 5, added together with Nyasol, ERβ) is listed as “reduced this activation”.

In the case of TNF-α, the “activation of 3 copies of the TNF-RE (−125 to −82) upstream of the tk promoter” value (TNF-RE tkLuc; TNF-α as stimulus) is reported as 5-10 fold.

For `C[C@]12CC[C@@H]3c4ccc(O)cc4CC[C@H]3[C@@H]1CC[C@@H]2O` [E2, estradiol], the “repression of TNF-α activation of TNF-RE tkLuc” value (ERβ [6]) was 60-80%.
